Test results as given in ChEMBL document CHEMBL3751767, “Synthesis, in vitro and in vivo anticancer activities of novel 4-substituted 1,2-bis(4-chlorophenyl)-pyrazolidine-3,5-dione derivatives” (Medchemcomm, 2015).

Tests used:
[1] = Cytotoxicity against human SMMC7721 cells assessed as reduction in cell viability after 72 hrs by MTT assay; format: functional, cell-based; settings: SMMC-7721, 72 h
[2] = Cytotoxicity against human EC109 cells assessed as reduction in cell viability after 72 hrs by MTT assay; format: functional, cell-based; settings: ECa-109, 72 h
[3] = Cytotoxicity against human MGC803 cells assessed as reduction in cell viability after 72 hrs by MTT assay; format: functional, cell-based; settings: MGC-803, 72 h
MCF7 = assay: Cytotoxicity against human MCF7 cells assessed as reduction in cell viability after 72 hrs by MTT assay; format: functional, cell-based; settings: MCF7, 72 h
[4] = Antitumor activity against human MGC803 cells xenografted in nude mouse assessed as reduction in tumor weight at 30 mg/kg, po qd for 28 days relative to control; format: functional, MGC-803; set-up: scale not given: the % may be the effect or the level left

O=C1C(=Cc2ccc(Cl)cc2)C(=O)N(c2ccc(Cl)cc2)N1c1ccc(Cl)cc1
IC50 [1]: 30.9 µM | IC50 [2]: 17.3 µM | IC50 [3]: 32.6 µM | IC50 (MCF7): 28.5 µM

O=c1[nH]cc(F)c(=O)[nH]1 [FLUOROURACIL]
IC50 [1]: 14.2 µM | IC50 [2]: 15.9 µM | IC50 [3]: 9.2 µM | IC50 (MCF7): 13.5 µM

CCC(C)=C1C(=O)N(c2ccc(Cl)cc2)N(c2ccc(Cl)cc2)C1=O
IC50 [1]: 49.2 µM | IC50 [2]: 41.1 µM | IC50 [3]: 66.5 µM | IC50 (MCF7): 41.6 µM

O=C1C(=Cc2ccc(F)c(F)c2)C(=O)N(c2ccc(Cl)cc2)N1c1ccc(Cl)cc1
IC50 [1]: 35.8 µM | IC50 [2]: 13.1 µM | IC50 [3]: 35.7 µM | IC50 (MCF7): 22 µM

O=C1C(=Cc2ccc(F)cc2)C(=O)N(c2ccc(Cl)cc2)N1c1ccc(Cl)cc1
IC50 [1]: 23.3 µM | IC50 [2]: 35.6 µM | IC50 [3]: 26 µM | IC50 (MCF7): 31.4 µM

COc1ccc(C=C2C(=O)N(c3ccc(Cl)cc3)N(c3ccc(Cl)cc3)C2=O)cc1
IC50 [1]: > 128 µM | IC50 [2]: > 128 µM | IC50 [3]: > 128 µM | IC50 (MCF7): > 128 µM

CN(C)c1ccc(C=C2C(=O)N(c3ccc(Cl)cc3)N(c3ccc(Cl)cc3)C2=O)cc1
IC50 [1]: > 128 µM | IC50 [2]: > 128 µM | IC50 [3]: 80.2 µM | IC50 (MCF7): > 128 µM

COc1cc(C=C2C(=O)N(c3ccc(Cl)cc3)N(c3ccc(Cl)cc3)C2=O)ccc1O
IC50 [1]: 64.9 µM | IC50 [2]: 7.1 µM | IC50 [3]: 21.8 µM | IC50 (MCF7): 22.8 µM

O=C1C(=Cc2ccc(Cl)cc2Cl)C(=O)N(c2ccc(Cl)cc2)N1c1ccc(Cl)cc1
IC50 [1]: > 128 µM | IC50 [2]: 60.2 µM | IC50 [3]: > 128 µM | IC50 (MCF7): > 128 µM

CC(=C1C(=O)N(c2ccc(Cl)cc2)N(c2ccc(Cl)cc2)C1=O)c1ccc(O)cc1
IC50 [1]: 57 µM | IC50 [2]: 55.6 µM | IC50 [3]: 42.8 µM | IC50 (MCF7): 76.5 µM

COc1ccc(C=C2C(=O)N(c3ccc(Cl)cc3)N(c3ccc(Cl)cc3)C2=O)cc1OC
IC50 [1]: > 128 µM | IC50 [2]: > 128 µM | IC50 [3]: > 128 µM | IC50 (MCF7): > 128 µM

O=C1C(=Cc2ccco2)C(=O)N(c2ccc(Cl)cc2)N1c1ccc(Cl)cc1
IC50 [1]: 19.5 µM | IC50 [2]: 14.3 µM | IC50 [3]: 12.8 µM | IC50 (MCF7): 20.3 µM

COc1cccc(C=C2C(=O)N(c3ccc(Cl)cc3)N(c3ccc(Cl)cc3)C2=O)c1O
IC50 [1]: 64.9 µM | IC50 [2]: 39 µM | IC50 [3]: 24.3 µM | IC50 (MCF7): 26.7 µM

COc1cccc(C=C2C(=O)N(c3ccc(Cl)cc3)N(c3ccc(Cl)cc3)C2=O)c1OC
IC50 [1]: 14.1 µM | IC50 [2]: 6.8 µM | IC50 [3]: 29.6 µM | IC50 (MCF7): 11.9 µM

COc1cc(C=C2C(=O)N(c3ccc(Cl)cc3)N(c3ccc(Cl)cc3)C2=O)cc(OC)c1OC
IC50 [1]: 29.5 µM | IC50 [2]: 10.1 µM | IC50 [3]: 17.3 µM | IC50 (MCF7): 16.2 µM

O=C1C(=Cc2ccc(Br)cc2)C(=O)N(c2ccc(Cl)cc2)N1c1ccc(Cl)cc1
IC50 [1]: 16.6 µM | IC50 [2]: 12.3 µM | IC50 [3]: 16.9 µM | IC50 (MCF7): 30.4 µM

O=C1C(=Cc2ccccc2)C(=O)N(c2ccc(Cl)cc2)N1c1ccc(Cl)cc1
IC50 [1]: 26.2 µM | IC50 [2]: 32.7 µM | IC50 [3]: 27.2 µM | IC50 (MCF7): 20.2 µM

CC(C)=C1C(=O)N(c2ccc(Cl)cc2)N(c2ccc(Cl)cc2)C1=O
IC50 [1]: 45.6 µM | IC50 [2]: 42.1 µM | IC50 [3]: 39 µM | IC50 (MCF7): 39.6 µM

O=C1C(=Cc2c[nH]c3ccccc23)C(=O)N(c2ccc(Cl)cc2)N1c1ccc(Cl)cc1
IC50 [1]: 19.6 µM | IC50 [2]: 23.4 µM | IC50 [3]: 21.8 µM | IC50 (MCF7): 34.2 µM

CCCCCOC(=O)Nc1nc(=O)n([C@@H]2O[C@H](C)[C@@H](O)[C@H]2O)cc1F [CAPECITABINE]
Activity [4]: 62.7%

O=C1C(=Cc2ccc(O)cc2)C(=O)N(c2ccc(Cl)cc2)N1c1ccc(Cl)cc1
IC50 [1]: 20.6 µM | IC50 [2]: 34.2 µM | IC50 [3]: 19.5 µM | IC50 (MCF7): 23.2 µM

COc1cccc(C=C2C(=O)N(c3ccc(Cl)cc3)N(c3ccc(Cl)cc3)C2=O)c1
IC50 [1]: 30.2 µM | IC50 [2]: 29 µM | IC50 [3]: 26.6 µM | IC50 (MCF7): 18.1 µM

COc1ccccc1C=C1C(=O)N(c2ccc(Cl)cc2)N(c2ccc(Cl)cc2)C1=O
IC50 [1]: 25.8 µM | IC50 [2]: 30.4 µM | IC50 [3]: 28.6 µM | IC50 (MCF7): 26.3 µM

O=C1C(=Cc2cccc(Cl)c2)C(=O)N(c2ccc(Cl)cc2)N1c1ccc(Cl)cc1
IC50 [1]: 20.2 µM | IC50 [2]: 22.6 µM | IC50 [3]: 14.4 µM | IC50 (MCF7): 18.3 µM
